Assay results published in patent US20100034766A1, “Malodor Counteracting Compositions” (Givaudan SA, priority 2006, published 2010).
Structures can show the parent of a compound that is named as a salt.

Columns and labels:
[1] = Malodor reduction potential: headspace GC/MS determination of hexyl amine remaining; settings: for % Reduction of hexyl amine: 10 ul hexyl amine
Procedure: A 1 liter glass headspace collection jar had placed inside it a 25 ml stoppered glass container which contained 0.5 g of a test compound/mixture of compounds as indicated in Table 3. 10 ul of hexyl amine as a representative malodor was injected into the headspace jar. This was left for 15 minutes at 25° C. to equilibrate. One ml/minute of the headspace was drawn for one minute through a Tenax™ headspace trap. The trap was removed and analyzed to determine the initial concentration of the malodor. The glass stopper was removed from the container and the test component and the malodor were left in contact for 60 minutes at 25° C. One ml/minute of the headspace was drawn for one minute through a Tenax™ headspace trap to determine the amount of malodor remaining. The Tenax traps were thermally desorbed into an Agilent 6890 GC/MS to analyze the quantity of hexyl amine. The results are shown in Table 3 below: Following the same procedure described in Example 1, compounds according to formula (B) were mixed with an equal amount of citronellyl methylcrotonate. 0.5 g of the resulting mixture was tested against 10 ul hexyl amine as a representative malodor. Following the same procedure described in Example 1,5-(1-(3,3-dimethyl-cyclohexyl)ethoxy)-5-methylhexan-2-one (compound 10) was mixed with an equal amount of compounds of formula (A). 0.5 g of the resulting mixture was tested against 10 ul hexyl amine as a representative malodor.

[2] = Sensory test of axilla malodor reduction on cotton pads, expert panel, Labeled Magnitude Scale; settings: Example 4, Table 6; 0.4 g of 10% ethanol solution of test mixture on pad with 0.5 g of 1% synthetic axilla malodor; expert panel of 5, LMS
Procedure: Test mixtures of a compound of formula (A) and a compound of formula (B) in the ratio as given in Table 6 (10% ethanol solution) of each was prepared. 0.5 g of a 1% ethanol solution of synthetic axilla malodor was placed onto cotton pads. 0.4 g of the ethanol solution of the test mixtures, respectively, was placed on each axilla malodor treated cotton pad. One pad was left untreated as the control. Each pad was allowed to dry for 15 minutes. The test cotton pads were randomized, and an expert panel of 5 was used to determine the intensity of the malodor. Each panelist was asked to check a box that represented the strength of the axilla malodor using a Labeled Magnitude Scale (LMS) (Barry G. Green, Pamela Dalton, Beverly Cowart, Greg Shaffer, Krystyna Rankin and Jennifer Higgins. Evaluating the Labeled Magnitude Scale for Measuring Sensations of Taste and Smell. Chemical Senses. Vol. 21, pp 323-334, 1996).
The % reduction of malodor was calculated by:
% Reduction=(Mean LMS Control−Mean LMS Test)/Mean LMS Control
A Givaudan fragrance composition containing solvent dipropylene glycol at 20% (Composition A) and a fragrance composition (Composition B) wherein 10% dipropylene glycol are replaced by 10% of a mixture of compound 4 and geranyl:crotonate (1:9); were compared for MOC efficacy using the sensory test described in Example 4.

[3] = Example 1, Table 3, 0.5 g test compound/mixture, 60 minutes contact at 25° C., headspace
[4] = Example 3, Table 5, compound 10 mixed with equal amount of formula (A) compounds, 0.5 g

| Structure (SMILES) | effect on the effectiveness of the class A compound (hexyl amine reduction) ([1]; compound 4 in combination with a class A compound, Table 3) | % Reduction of hexyl amine [1, 3] | % Reduction of hexyl amine [1, 4] | % Reduction of hexyl amine ([1]; Example 2, Table 4, formula (B) compounds mixed with equal amount of citronellyl methylcrotonate, 0.5 g) | % Reduction of axilla malodor [2] |
| --- | --- | --- | --- | --- | --- |
| CC(OC(C)(C)COC(=O)C1CC1)C1CCCC(C)(C)C1 (stereo not drawn) [compound 4, cyclopropanecarboxylic acid 2-[1-(3,3-dimethylcyclohexyl)ethoxy]-2-methylpropyl ester] | significantly increases the effectiveness | – | – | – | – |
| O=C(C=Cc1ccccc1)OCc1ccccc1 [benzyl cinnamate] | – | 23.5% | 62.1% | – | – |
| CCCCC(CC)COC(=O)C=Cc1ccc(OC)cc1 (stereo not drawn) [Octyl methyl cinnamate, 2-ethyl-hexyl-para-methoxy-cinnamate] | – | 54.1% | 58.7% | – | – |
| CC(C)=CCCC(C)CCOC(=O)C=C(C)C (stereo not drawn) [citronellyl methylcrotonate, 3,7-dimethyloct-6-enyl 3-methylbut-2-enoate] | – | 53.6% | – | 61.3% | 51.0% |
| CCCCCCOC(=O)/C=C/C(=O)OCCCCCC [dihexyl fumarate] | – | 68.7% | 78.1% | – | – |
| C/C=C/C(=O)OC/C=C(\C)CCC=C(C)C [geranyl crotonate] | – | 64.7% | 71.0% | – | – |
